In the NIST ThermoML archive (doi:10.1016/j.jct.2019.03.032):
Numbers after ± are expanded uncertainties.

Settings: Metastable liquid, Gas chromatography

Compound | vapor or sublimation pressure (298.15 K) | vapor or sublimation pressure (310 K) | vapor or sublimation pressure (320 K) | vapor or sublimation pressure (330 K) | vapor or sublimation pressure (340 K) | vapor or sublimation pressure (350 K) | vapor or sublimation pressure (360 K) | vapor or sublimation pressure (370 K) | vapor or sublimation pressure (380 K) | vapor or sublimation pressure (390 K) | vapor or sublimation pressure (400 K) | vapor or sublimation pressure (410 K) | vapor or sublimation pressure (420 K) | vapor or sublimation pressure (430 K) | vapor or sublimation pressure (440 K) | vapor or sublimation pressure (450 K) | vapor or sublimation pressure (460 K) | vapor or sublimation pressure (470 K) | vapor or sublimation pressure (480 K) | vapor or sublimation pressure (490 K) | further results
CC(C)=CCC/C(C)=C/CC/C(C)=C/CC/C=C(\C)CC/C=C(\C)CCC=C(C)C | 3.7e-10 kPa | 3.1e-09 kPa | 1.6e-08 kPa | 7.5e-08 kPa | 3.1e-07 ± 1.4e-07 kPa | 1.2e-06 kPa | 3.9e-06 ± 1.6e-06 kPa | 1.2e-05 ± 4e-06 kPa | 3.5e-05 ± 1.2e-05 kPa | 9.3e-05 ± 7e-06 kPa | 0.00023 ± 6e-05 kPa | 0.00055 ± 0.00015 kPa | 0.0012 ± 0.0002 kPa | 0.0026 ± 0.0004 kPa | 0.0053 ± 0.0009 kPa | 0.01 ± 0.002 kPa | 0.019 ± 0.002 kPa | 0.035 ± 0.005 kPa | 0.061 ± 0.007 kPa | 0.1 ± 0.011 kPa | vapor or sublimation pressure (500 K): 0.17 ± 0.017 kPa; vapor or sublimation pressure (510 K): 0.27 ± 0.025 kPa; vapor or sublimation pressure (520 K): 0.42 ± 0.036 kPa; vapor or sublimation pressure (530 K): 0.63 ± 0.052 kPa; vapor or sublimation pressure (540 K): 0.94 ± 0.073 kPa; vapor or sublimation pressure (550 K): 1.4 ± 0.11 kPa; vapor or sublimation pressure (560 K): 2 ± 0.15 kPa; vapor or sublimation pressure (570 K): 2.8 ± 0.22 kPa; vapor or sublimation pressure (580 K): 3.8 ± 0.29 kPa; vapor or sublimation pressure (590 K): 5.1 ± 0.4 kPa; vapor or sublimation pressure (600 K): 6.9 ± 0.54 kPa; vapor or sublimation pressure (709.1 K): 101.33 ± 10 kPa
CC(C)CCCC(C)CCCC(C)CCCCC(C)CCCC(C)CCCC(C)C (centres undefined) [2,6,10,15,19,23-hexamethyltetracosane] | 1.5e-09 kPa | 1.2e-08 kPa | 5.9e-08 kPa | 2.6e-07 kPa | 1e-06 ± 4e-07 kPa | 3.5e-06 ± 1.4e-06 kPa | 1.1e-05 ± 4e-06 kPa | 3.4e-05 ± 1.2e-05 kPa | 9.2e-05 ± 7e-06 kPa | 0.00024 ± 6e-05 kPa | 0.00057 ± 0.00015 kPa | 0.0013 ± 0.0002 kPa | 0.0028 ± 0.0006 kPa | 0.0059 ± 0.0011 kPa | 0.012 ± 0.002 kPa | 0.022 ± 0.004 kPa | 0.04 ± 0.005 kPa | 0.071 ± 0.009 kPa | 0.121 ± 0.015 kPa | 0.2 ± 0.021 kPa | vapor or sublimation pressure (500 K): 0.32 ± 0.032 kPa; vapor or sublimation pressure (510 K): 0.51 ± 0.046 kPa; vapor or sublimation pressure (520 K): 0.78 ± 0.065 kPa; vapor or sublimation pressure (530 K): 1.2 ± 0.095 kPa; vapor or sublimation pressure (540 K): 1.7 ± 0.13 kPa; vapor or sublimation pressure (550 K): 2.5 ± 0.19 kPa; vapor or sublimation pressure (560 K): 3.5 ± 0.27 kPa; vapor or sublimation pressure (570 K): 4.8 ± 0.37 kPa; vapor or sublimation pressure (580 K): 6.6 ± 0.51 kPa; vapor or sublimation pressure (590 K): 8.9 ± 0.69 kPa; vapor or sublimation pressure (600 K): 12 ± 0.93 kPa; vapor or sublimation pressure (686.4 K): 101.33 ± 10 kPa
